From ChEMBL document CHEMBL1201862, “PubChem BioAssay data set” (2004)
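All cell lines were grown in 96-well plates and treated with compound for 48 hours. At the GI50, growth is halved.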 Activity calls are given as the source filed them. Cut-off read from the data, not from the text of the source: active = GI50 up to about 1.1 µM and inactive = higher. Where a SMILES comes first, the peptide text is derived from it. The star is where a group is joined. Boc = CC(C)(C)OC(=O)*; Bn = c1ccc(C*)cc1

Legend:
Assay in all cases: inhibition of tumour cell growth, NCI panel, 48 h
SK-OV-3 = system: SK-OV-3
SF-268 = system: SF-268
NCI/ADR-RES = system: NCI/ADR-RES
HCT-15 = system: HCT-15
SK-MEL-28 = system: SK-MEL-28
SK-MEL-5 = system: SK-MEL-5
A498 = system: A498
Hs-578T = system: Hs-578T
M14 = system: M14
SF-295 = system: SF-295
MDA-N = system: MDA-N
KM12 = system: KM12
BT-549 = system: BT-549
RXF 393 = system: RXF 393
K562 = system: K562
PC-3 = system: PC-3
786-0 = system: 786-0
LOX IMVI = system: LOX IMVI
Malme-3M = system: Malme-3M
A549 = system: A549
OVCAR-8 = system: OVCAR-8
SN12C = system: SN12C
NCI-H226 = system: NCI-H226
HCT-116 = system: HCT-116
COLO 205 = system: COLO 205
MDA-MB-435 = system: MDA-MB-435
SW-620 = system: SW-620
OVCAR-3 = system: OVCAR-3
HOP-92 = system: HOP-92
HOP-62 = system: HOP-62
IGROV-1 = system: IGROV-1
U-251 = system: U-251
SR = system: SR
OVCAR-4 = system: OVCAR-4
UACC-257 = system: UACC-257
TK-10 = system: TK-10
HL-60 = system: HL-60
UO-31 = system: UO-31
SNB-19 = system: SNB-19
NCI-H23 = system: NCI-H23
SF-539 = system: SF-539
RPMI-8226 = system: RPMI-8226
T47D = system: T47D
NCI-H460 = system: NCI-H460
UACC-62 = system: UACC-62
EKVX = system: EKVX
ACHN = system: ACHN
MCF7 = system: MCF7
OVCAR-5 = system: OVCAR-5
CAKI-1 = system: CAKI-1
DU-145 = system: DU-145
CCRF-CEM = system: CCRF-CEM
HT-29 = system: HT-29
MOLT-4 = system: MOLT-4
MDA-MB-231 = system: MDA-MB-231
SNB-75 = system: SNB-75
HCC 2998 = system: HCC 2998
SK-MEL-2 = system: SK-MEL-2
NCI-H522 = system: NCI-H522

SMILES: Cc1nc2[nH]ccn2c(=O)c1CCO
- GI50 (SK-OV-3): > 10 µM (inactive)
- GI50 (SF-268): > 10 µM (inactive)
- GI50 (NCI/ADR-RES): > 10 µM (inactive)
- GI50 (HCT-15): > 10 µM
- GI50 (SK-MEL-28): > 10 µM (inactive)
- GI50 (SK-MEL-5): > 10 µM (inactive)
- GI50 (A498): > 10 µM (inactive)
- GI50 (Hs-578T): > 10 µM (inactive)
- GI50 (M14): > 10 µM (inactive)
- GI50 (SF-295): > 10 µM (inactive)
- GI50 (MDA-N): > 10 µM (inactive)
- GI50 (KM12): > 10 µM (inactive)
- GI50 (BT-549): > 10 µM (inactive)
- GI50 (RXF 393): > 10 µM (inactive)
- GI50 (K562): > 10 µM (inactive)
- GI50 (PC-3): > 10 µM (inactive)
- GI50 (786-0): > 10 µM (inactive)
- GI50 (LOX IMVI): > 10 µM (inactive)
- GI50 (Malme-3M): > 10 µM (inactive)
- GI50 (A549): > 10 µM (inactive)
- GI50 (OVCAR-8): > 10 µM (inactive)
- GI50 (SN12C): > 10 µM (inactive)
- GI50 (NCI-H226): > 10 µM (inactive)
- GI50 (HCT-116): > 10 µM (inactive)
- GI50 (COLO 205): > 10 µM (inactive)
- GI50 (MDA-MB-435): > 10 µM (inactive)
- GI50 (SW-620): > 10 µM (inactive)
- GI50 (OVCAR-3): > 10 µM (inactive)
- GI50 (HOP-92): > 10 µM (inactive)
- GI50 (HOP-62): > 10 µM (inactive)
- GI50 (IGROV-1): > 10 µM (inactive)
- GI50 (U-251): > 10 µM (inactive)
- GI50 (SR): > 10 µM (inactive)
- GI50 (OVCAR-4): > 10 µM (inactive)
- GI50 (UACC-257): > 10 µM (inactive)
- GI50 (TK-10): > 10 µM (inactive)
- GI50 (HL-60): > 10 µM (inactive)
- GI50 (UO-31): > 10 µM (inactive)
- GI50 (SNB-19): > 10 µM (inactive)
- GI50 (NCI-H23): > 10 µM (inactive)
- GI50 (SF-539): > 10 µM (inactive)
- GI50 (RPMI-8226): > 10 µM (inactive)
- GI50 (T47D): > 10 µM (inactive)
- GI50 (NCI-H460): > 10 µM (inactive)
- GI50 (UACC-62): > 10 µM (inactive)
- GI50 (EKVX): > 10 µM (inactive)
- GI50 (ACHN): > 10 µM (inactive)
- GI50 (MCF7): > 10 µM (inactive)
- GI50 (OVCAR-5): > 10 µM (inactive)
- GI50 (CAKI-1): > 10 µM (inactive)
- GI50 (DU-145): > 10 µM (inactive)
- GI50 (CCRF-CEM): > 10 µM (inactive)
- GI50 (HT-29): > 10 µM (inactive)
- GI50 (MOLT-4): > 10 µM (inactive)
- GI50 (MDA-MB-231): > 10 µM (inactive)
- GI50 (SNB-75): > 10 µM (inactive)

SMILES: CC(=O)OC1=NN=C2COC(c3ccccc3OC(C)=O)=NN2C1
- GI50 (SK-OV-3): > 50 µM (inactive)
- GI50 (HCC 2998): > 50 µM (inactive)
- GI50 (SF-268): 34.8 µM (inactive)
- GI50 (NCI/ADR-RES): > 50 µM (inactive)
- GI50 (HCT-15): > 50 µM
- GI50 (SK-MEL-28): 21.9 µM (inactive)
- GI50 (SK-MEL-5): 9.75 µM (inactive)
- GI50 (Hs-578T): 24 µM (inactive)
- GI50 (M14): 16.7 µM (inactive)
- GI50 (SF-295): > 50 µM (inactive)
- GI50 (MDA-N): > 50 µM (inactive)
- GI50 (SK-MEL-2): 36.2 µM (inactive)
- GI50 (KM12): 31.5 µM (inactive)
- GI50 (BT-549): > 50 µM (inactive)
- GI50 (NCI-H522): > 50 µM (inactive)
- GI50 (RXF 393): > 50 µM (inactive)
- GI50 (K562): > 50 µM (inactive)
- GI50 (PC-3): 20.1 µM (inactive)
- GI50 (786-0): 24.4 µM (inactive)
- GI50 (LOX IMVI): 24.1 µM (inactive)
- GI50 (Malme-3M): 27.2 µM (inactive)
- GI50 (A549): > 50 µM (inactive)
- GI50 (SN12C): > 50 µM (inactive)
- GI50 (HCT-116): > 50 µM (inactive)
- GI50 (COLO 205): 40.1 µM (inactive)
- GI50 (MDA-MB-435): > 50 µM (inactive)
- GI50 (SW-620): > 50 µM (inactive)
- GI50 (OVCAR-3): > 50 µM (inactive)
- GI50 (HOP-92): > 50 µM (inactive)
- GI50 (HOP-62): > 50 µM (inactive)
- GI50 (IGROV-1): > 50 µM (inactive)
- GI50 (U-251): > 50 µM (inactive)
- GI50 (SR): > 50 µM (inactive)
- GI50 (OVCAR-4): > 50 µM (inactive)
- GI50 (UACC-257): 20.4 µM (inactive)
- GI50 (TK-10): > 50 µM (inactive)
- GI50 (HL-60): > 50 µM (inactive)
- GI50 (UO-31): 38.2 µM (inactive)
- GI50 (SNB-19): > 50 µM (inactive)
- GI50 (NCI-H23): > 50 µM (inactive)
- GI50 (SF-539): > 50 µM (inactive)
- GI50 (RPMI-8226): > 50 µM (inactive)
- GI50 (T47D): > 50 µM (inactive)
- GI50 (NCI-H460): > 50 µM (inactive)
- GI50 (UACC-62): 28.1 µM (inactive)
- GI50 (EKVX): > 50 µM (inactive)
- GI50 (ACHN): > 50 µM (inactive)
- GI50 (MCF7): > 50 µM (inactive)
- GI50 (OVCAR-5): > 50 µM (inactive)
- GI50 (CAKI-1): > 50 µM (inactive)
- GI50 (DU-145): > 50 µM (inactive)
- GI50 (CCRF-CEM): > 50 µM (inactive)
- GI50 (HT-29): 39 µM (inactive)
- GI50 (MDA-MB-231): > 50 µM (inactive)
- GI50 (SNB-75): 15.8 µM (inactive)

SMILES: COC(=O)C(CC(C)C)NC(=O)CNC(=O)C(Cc1ccc(OCc2ccccc2)cc1)NC(=O)C(COCc1ccccc1)NC(=O)OC(C)(C)C (centres undefined) (Boc-S(Bn)Y(Bn)GL-OMe; configuration not given here)
- GI50 (SK-OV-3): > 100 µM (inactive)
- GI50 (SF-268): > 100 µM (inactive)
- GI50 (NCI/ADR-RES): > 100 µM (inactive)
- GI50 (SK-MEL-28): > 100 µM (inactive)
- GI50 (SK-MEL-5): > 100 µM (inactive)
- GI50 (Hs-578T): > 100 µM (inactive)
- GI50 (M14): > 100 µM (inactive)
- GI50 (SF-295): > 100 µM (inactive)
- GI50 (MDA-N): > 100 µM (inactive)
- GI50 (KM12): > 100 µM (inactive)
- GI50 (BT-549): > 100 µM (inactive)
- GI50 (NCI-H522): 72.8 µM (inactive)
- GI50 (RXF 393): > 100 µM (inactive)
- GI50 (K562): 3.49 µM (inactive)
- GI50 (PC-3): > 100 µM (inactive)
- GI50 (786-0): > 100 µM (inactive)
- GI50 (LOX IMVI): 58.5 µM (inactive)
- GI50 (Malme-3M): > 100 µM (inactive)
- GI50 (A549): > 100 µM (inactive)
- GI50 (OVCAR-8): > 100 µM (inactive)
- GI50 (SN12C): > 100 µM (inactive)
- GI50 (NCI-H226): > 100 µM (inactive)
- GI50 (HCT-116): > 100 µM (inactive)
- GI50 (COLO 205): > 100 µM (inactive)
- GI50 (MDA-MB-435): > 100 µM (inactive)
- GI50 (SW-620): > 100 µM (inactive)
- GI50 (OVCAR-3): > 100 µM (inactive)
- GI50 (HOP-92): > 100 µM (inactive)
- GI50 (HOP-62): > 100 µM (inactive)
- GI50 (IGROV-1): > 100 µM (inactive)
- GI50 (U-251): > 100 µM (inactive)
- GI50 (SR): > 100 µM (inactive)
- GI50 (OVCAR-4): > 100 µM (inactive)
- GI50 (TK-10): > 100 µM (inactive)
- GI50 (HL-60): 4.56 µM (inactive)
- GI50 (UO-31): > 100 µM (inactive)
- GI50 (SNB-19): > 100 µM (inactive)
- GI50 (NCI-H23): > 100 µM (inactive)
- GI50 (SF-539): > 100 µM (inactive)
- GI50 (RPMI-8226): 9.51 µM (inactive)
- GI50 (T47D): > 100 µM (inactive)
- GI50 (NCI-H460): > 100 µM (inactive)
- GI50 (UACC-62): > 100 µM (inactive)
- GI50 (EKVX): > 100 µM (inactive)
- GI50 (ACHN): > 100 µM (inactive)
- GI50 (MCF7): > 100 µM (inactive)
- GI50 (OVCAR-5): > 100 µM (inactive)
- GI50 (CAKI-1): > 100 µM (inactive)
- GI50 (DU-145): > 100 µM (inactive)
- GI50 (HT-29): > 100 µM (inactive)
- GI50 (MOLT-4): > 100 µM (inactive)
- GI50 (MDA-MB-231): > 100 µM (inactive)
- GI50 (SNB-75): > 100 µM (inactive)
